Counter-ions that a name gives are not always drawn. Like-named read-outs stand apart in the source and are kept apart here.
What was measured:
Type in all cases: physicochemical
[1] = Slurry study of Form A of the hemi-fumarate salt (XRPD of solids); conditions: room temperature, three days (footnote *)
[2] = Inter-conversion study (competitive slurry) of hemi-fumarate Form A and Form B in IPA; conditions: RT and 50° C.
Method: Equal amount of the Form A of the hemi-fumarate salt and the Form B of the hemi-fumarate salt were added into IPA, and the suspensions were stirred at RT or 50° C. for 3 days, respectively. Residual solids were obtained and characterized. […] The overlay of the XRPD pattern from the inter-conversion study of the hemi-fumarate salt is depicted in FIG. 15.

[3] = Mechanical treatment (manual grinding) of Form A of the hemi-fumarate salt
Method: Appropriate amount of the Form A of the hemi-fumarate salt was ground for about two and five minutes manually and the samples were analyzed by XRPD (Example 1, XRPD). […] The crystallinity became low after grinding for five minutes. Solubility of the Form A of the Hemi-Fumarate Salt of the Compound of Formula (I) in Biologically Relevant Media

[4] = Physical stability under high humidity (92.5% RH); conditions: 11 days
Method: The physical stability of the Form A of the hemi-fumarate salt was evaluated under high humidity (92.5% RH) for 11 days.

[5] = Solubility in water and biologically relevant media (SGF, FeSSIF, FaSSIF), HPLC, pH, XRPD; conditions: 37° C.; for XRPD of the filter cake: 24 h
Method: (§1) HPLC analysis was performed with an Agilent HPLC 1260 series instrument.
The solubility of the Form A of the hemi-fumarate salt was evaluated in water and biologically relevant media, SGF, FeSSIF, and FaSSIF. About 10 mg of the sample was weighed into sample vials and then 2 mL of three bio-relevant media and water were added to each respective sample to make suspensions. All suspensions were shaken at 37° C. with 200 rpm. […] The XRPD pattern from the solubility test of the Form A of the hemi-fumarate salt of the compound of formula (I) is depicted in FIG. 12.

[6] = Physical and chemical stability at 40° C. (75% RH) and 60° C. (XRPD, HPLC); conditions: for Physical and chemical stability / XRPD - 29 days / Purity (%) - 29 days: 29 days
Method: as §1
Appropriate amount of the Form A of the hemi-fumarate salt was placed at 40° C. (75% RH) and 60° C. for several days. The solids were analyzed by XRPD (Example 1, XRPD) and HPLC (Example 1, HPLC) at appropriate time points. The physical and chemical stabilities of the Form A of the hemi-fumarate salt was conducted at 60° C. and at 40° C. (75% RH) for 29 days. No obvious degradation occurred and no form change was observed under testing conditions. […] (75% RH) for 29 days.

[7] = Slurry study of Form A of the hemi-fumarate salt (XRPD of solids)
Method: XRPD patterns of samples were collected using with an X-ray diffractometer (Bruker D8 advance). The system was equipped with LynxEye detector. Samples were scanned from 3 to 40° 2θ, at a step size 0.02° 2θ. The tube voltage and current were 40 KV and 40 mA, respectively.
Slurry studies of the Form A of the hemi-fumarate salt were conducted at room temperature for four days and at 50° C. for one day. About 10 mg to 35 mg of the Form A of the hemi-fumarate salt was slurried in different solvents at RT or 50° C. for one to four days. Solid samples were collected by filtration and analyzed by XRPD (Example 1, XRPD) at a specific time. […] The overlay of XRPD patterns from the slurry study of the Form A of the hemi-fumarate salt of the compound of formula (I) is depicted in FIG. 11.

[8] = Solubility of hemi-fumarate Form A by visual assessment upon solvent addition
Method: The solubility of the Form A of the hemi-fumarate salt was evaluated by visual assessment of samples upon solvent addition, employing organic solvents and water. Among the solvents, the Form A of the hemi-fumarate salt had the highest solubility in THF, MeOH, EtOH and acetone (>50 mg/mL).

In the case of `Cc1cc(NC(=O)[C@H](O)c2cc(F)cc(F)c2)ccc1-c1cnc(N)c(C(=O)NC(C)C)c1` [Form A of the hemi-fumarate salt, (R)-2-amino-5-(4-(2-(3,5-difluorophenyl)-2-hydroxyacetamido)-2-methylphenyl)-N-isopropylnicotinamide], the “XRPD result after slurry” value ([1]; Heptane) is reported as “Form A*”, the “XRPD result after slurry” value ([1]; IPAc) is reported as “Form A*” and the “XRPD result after slurry” value ([1]; Toluene) is reported as “Form A*”. The “Relative stability of hemi-fumarate Form A vs Form B” value [2] was “more stable form”, the “Crystallinity after manual grinding” value ([3]; grinding for five minutes) was “became low” and the “XRPD form after manual grinding” value ([3]; ground for about two and five minutes manually) was “remained unchanged and no new form was obtained by grinding”. The “Physical stability (form by XRPD)” value [4] was “No form change was detected”, the “pH of the filtrate” value ([5]; FaSSIF, 0.5 hours) was 6.39 and the “pH of the filtrate” value ([5]; FaSSIF, 2 hours) was 6.36. The “XRPD of the filter cake” value ([5]; FaSSIF) was “exhibited dissociation into the free base Form”, the “XRPD of the filter cake” value ([5]; FaSSIF, listed as Form A of the Hemi-Fumarate Salt) was “Changed” and the “pH of the filtrate” value ([5]; FaSSIF, 24 hours) was 5.57. For the same molecule, the “pH of the filtrate” value ([5]; FeSSIF, 0.5 hours) was 5.14, the “pH of the filtrate” value ([5]; FeSSIF, 2 hours) was 4.88 and the “XRPD of the filter cake” value ([5]; FeSSIF) was “exhibited dissociation into the free base Form”. For the same molecule, the “XRPD of the filter cake” value ([5]; FeSSIF, listed as Form A of the Hemi-Fumarate Salt) was “Changed”, the “pH of the filtrate” value ([5]; FeSSIF, 24 hours) was 4.71 and the “Solubility comparison between media” value ([5]; SGF vs FeSSIF, FaSSIF and water) was “more soluble in SGF than in FeSSIF, FaSSIF, and water”. The “pH of the filtrate” value ([5]; SGF, 0.5 hours) was 1.12, the “pH of the filtrate” value ([5]; SGF, 2 hours) was 1.10 and the “XRPD of the filter cake” value ([5]; SGF) was “No XRPD pattern change was observed”. For the same molecule, the “pH of the filtrate” value ([5]; SGF, 24 hours) was 1.36, the “pH of the filtrate” value ([5]; Water, 0.5 hours) was 3.77 and the “pH of the filtrate” value ([5]; Water, 2 hours) was 2.97. The “XRPD of the filter cake” value ([5]; Water) was “exhibited dissociation into the free base Form”, the “XRPD of the filter cake” value ([5]; Water, listed as Form A of the Hemi-Fumarate Salt) was “Changed” and the “pH of the filtrate” value ([5]; Water, 24 hours) was 2.91. It also gave a solubility at 24 h ([5]; pH 1.36, simulated gastric fluid, thermodynamic from solid, SGF, 24 hours) of 4370 µg/mL, a solubility at 24 h ([5]; pH 2.91, thermodynamic from solid, Water, 24 hours) of 81 µg/mL and a solubility at 2 h ([5]; pH 2.97, thermodynamic from solid, Water, 2 hours) of 81 µg/mL. It also gave a solubility at 0.5 h ([5]; pH 3.77, thermodynamic from solid, Water, 0.5 hours) of 10 µg/mL, a solubility at 24 h ([5]; pH 4.71, thermodynamic from solid, FeSSIF, 24 hours) of 41 µg/mL and a solubility at 2 h ([5]; pH 4.88, thermodynamic from solid, FeSSIF, 2 hours) of 149 µg/mL. It also gave a solubility at 0.5 h ([5]; pH 5.14, thermodynamic from solid, FeSSIF, 0.5 hours) of 214 µg/mL, a solubility at 24 h ([5]; pH 5.57, thermodynamic from solid, FaSSIF, 24 hours) of 29 µg/mL and a solubility at 2 h ([5]; pH 6.36, thermodynamic from solid, FaSSIF, 2 hours) of 16 µg/mL. For the same molecule, the solubility at 0.5 h ([5]; pH 6.39, thermodynamic from solid, FaSSIF, 0.5 hours) was 22 µg/mL, the solubility at 0.5 h ([5]; simulated gastric fluid, thermodynamic from solid, SGF, 0.5 hours) was 4290 µg/mL and the solubility at 2 h ([5]; simulated gastric fluid, thermodynamic from solid, SGF, 2 hours) was 4230 µg/mL. The “Purity (%) - 8 days” value ([6]; 40° C. (75% RH), HPLC) was 99.86%, the “Physical and chemical stability” value ([6]; 40° C. (75% RH)) was “physically and chemically stable” and the “XRPD - 29 days” value ([6]; 40° C. (75% RH)) was “No Change”. For the same molecule, the “Purity (%) - 29 days” value ([6]; 40° C. (75% RH), HPLC) was 99.92%, the “Purity (%) - 8 days” value ([6]; 60° C., HPLC) was 99.86% and the “Physical and chemical stability” value ([6]; 60° C.) was “physically and chemically stable”. For the same molecule, the “XRPD - 29 days” value ([6]; 60° C.) was “No Change”, the “Purity (%) - 29 days” value ([6]; 60° C., HPLC) was 99.91% and the “Purity (%)” value ([6]; Starting material (before storage), HPLC) was 99.87%. The “XRPD result after slurry” value ([7]; Acetone/heptane (1:4), 50° C., 1 day) was “Form A”, the “XRPD result after slurry” value ([7]; Acetone/heptane (1:4), room temperature, 4 days) was “Form A” and the “XRPD result after slurry” value ([7]; EtOAc, 50° C., 1 day) was “Form A”. For the same molecule, the “XRPD result after slurry” value ([7]; Heptane, 50° C., 1 day) was “Form A”, the “XRPD result after slurry” value ([7]; IPAc, 50° C., 1 day) was “Form A” and the “XRPD result after slurry” value ([7]; Isobutanol, 50° C., 1 day) was “Form A”. For the same molecule, the “XRPD result after slurry” value ([7]; Isobutanol, room temperature, three days (footnote *)) was “Form A*”, the “XRPD result after slurry” value ([7]; MTBE, 50° C., 1 day) was “Form A” and the “XRPD result after slurry” value ([7]; MTBE, room temperature, 4 days) was “Form A”. The “XRPD result after slurry” value ([7]; MeCN, 50° C., 1 day) was “Form A”, the “XRPD result after slurry” value ([7]; MeCN, room temperature, 4 days) was “Form A” and the “XRPD result after slurry” value ([7]; MeOH/water (1:4), 50° C., 1 day) was “mixture of the Form B of the hemi-fumarate salt of the compound of formula (I) (Form B) and the free base Form of the compound of formula (I) (FBF)”. The “XRPD result after slurry” value ([7]; Toluene, 50° C., 1 day) was “Form A”, the “XRPD result after slurry” value ([7]; Water, 50° C., 1 day) was “mixture of the Form B of the hemi-fumarate salt of the compound of formula (I) (Form B) and the free base Form of the compound of formula (I) (FBF)” and the solubility ([8]; 2-butanone, organic solvent or mixture, thermodynamic from solid, 2-butanone, read-out: Solubility) was over 27.5 mg/mL. The solubility ([8]; Acetone) was over 50 mg/mL, the solubility ([8]; EtOAc, organic solvent or mixture, thermodynamic from solid, EtOAc, read-out: Solubility) was over 9.8 mg/mL and the solubility ([8]; EtOH) was over 53.4 mg/mL. It also gave a solubility ([8]; EtOH, organic solvent or mixture, thermodynamic from solid, EtOH, read-out: Solubility) of over 50 mg/mL, a solubility ([8]; IPA, organic solvent or mixture, thermodynamic from solid, IPA, read-out: Solubility) of over 17.8 mg/mL and a solubility ([8]; IPAc, organic solvent or mixture, thermodynamic from solid, IPAc, read-out: Solubility) of over 2.1 mg/mL. The solubility ([8]; MTBE, organic solvent or mixture, thermodynamic from solid, MTBE, read-out: Solubility) was under 2.2 mg/mL, the solubility ([8]; MeCN, organic solvent or mixture, thermodynamic from solid, MeCN, read-out: Solubility) was over 3.2 mg/mL and the solubility ([8]; MeOH) was over 62.2 mg/mL. For the same molecule, the solubility ([8]; MeOH, organic solvent or mixture, thermodynamic from solid, MeOH, read-out: Solubility) was over 50 mg/mL, the solubility ([8]; THF) was over 81.8 mg/mL and the solubility ([8]; THF, organic solvent or mixture, thermodynamic from solid, THF, read-out: Solubility) was over 50 mg/mL. The solubility ([8]; acetone, organic solvent or mixture, thermodynamic from solid, Acetone, read-out: Solubility) was over 50 mg/mL, the solubility ([8]; heptane, organic solvent or mixture, thermodynamic from solid, Heptane, read-out: Solubility) was under 0.63 mg/mL and the solubility ([8]; isobutanol, organic solvent or mixture, thermodynamic from solid, Isobutanol, read-out: Solubility) was over 5.8 mg/mL. The solubility ([8]; toluene, organic solvent or mixture, thermodynamic from solid, Toluene, read-out: Solubility) was under 0.96 mg/mL and the solubility ([8]; water, thermodynamic from solid, Water, read-out: Solubility) was under 0.83 mg/mL.
